Test system: Episkin™ reconstructed epidermides
Assay: Diffusion of radioactively labelled caffeine through Episkin reconstructed epidermides (barrier function)
Type: cell-based
Conditions: 200 μg/ml; for Reduction of the passage of caffeine after 2 hours of application (in %): relative to the control
Protocol: Hydroxyapatite in the form of particles sold under the name Hydroxysomes™ by LSC and their combination with a calcium D-pantetheine sulfonate sold by SOGO Pharmaceutical were tested on an in vitro model to evaluate the overall effect of this combination on the barrier function of the skin.
This test consists in applying the test active agents to Episkin™ reconstructed epidermides differentiated on D13, and then, after incubation for 5 days, in applying radioactively labelled caffeine and monitoring the diffusion of the labelled caffeine through the reconstructed epidermides.
Vitamin C, which is known to improve the epidermal barrier function via stimulation of the synthesis of the epidermal lipids, is used as a reference molecule for this test (positive control). Water is used as a negative control.
Differentiated (D13) Episkin™ epidermides were placed in 12-well plates containing 2 ml of differentiation medium and were precultured at 37° C. and 5% CO2 for 24 hours. After incubation, the epidermides were treated topically with 100 μl of each concentration of test product or of the reference product (vitamin C).
Control epidermides were treated topically with 100 μl of water.
The epidermides were then incubated at 37° C. and 5% CO2 for 5 days, with changing of the medium and new application of the active agents after 2 days.
The treatments were performed in quintuplicate (n=5).
Four epidermides were used for the passage of caffeine and one “control” epidermis was kept to perform histology at the end of the experiment.
After treatment with the test active agents and the reference product (vitamin C), the epidermides were washed and the caffeine was applied to the surface of each epidermis at a rate of 100 μl containing 2 μCi/ml (0.04 mM) of radioactive caffeine and 0.35 mM of cold caffeine, which corresponds to about 500 000 cpm total.
The % activity of caffeine after 2 hours of application was measured.

O=C1O[C@H]([C@@H](O)CO)C(O)=C1O [Vitamin C]
activity at 200 µg/mL (topical 5 days, caffeine after 2 hours of application, read-out: % activity relative to the control): 59%
Reduction of the passage of caffeine after 2 hours of application (in %): −41%
Reduction of the passage of caffeine after 2 hours of application (in %) (listed as vitamin C): −41%
